Results from ChEMBL document CHEMBL1201862, “PubChem BioAssay data set” (2004).
Activity calls are given as the source filed them.

What was measured:
Cytochrome P450 2D6 = Cytochrome P450 2D6 (Homo sapiens, UniProt P10635);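 also: CYP2D6 member of a cytochrome P450 panel assay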
Cytochrome P450 1A2 = target: T1, Cytochrome P450 1A2 (Homo sapiens, UniProt P05177);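 also: PubChem cytochrome P450 panel assay, CYP1A2 panel member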
T1 sequence (P05177 whole entry): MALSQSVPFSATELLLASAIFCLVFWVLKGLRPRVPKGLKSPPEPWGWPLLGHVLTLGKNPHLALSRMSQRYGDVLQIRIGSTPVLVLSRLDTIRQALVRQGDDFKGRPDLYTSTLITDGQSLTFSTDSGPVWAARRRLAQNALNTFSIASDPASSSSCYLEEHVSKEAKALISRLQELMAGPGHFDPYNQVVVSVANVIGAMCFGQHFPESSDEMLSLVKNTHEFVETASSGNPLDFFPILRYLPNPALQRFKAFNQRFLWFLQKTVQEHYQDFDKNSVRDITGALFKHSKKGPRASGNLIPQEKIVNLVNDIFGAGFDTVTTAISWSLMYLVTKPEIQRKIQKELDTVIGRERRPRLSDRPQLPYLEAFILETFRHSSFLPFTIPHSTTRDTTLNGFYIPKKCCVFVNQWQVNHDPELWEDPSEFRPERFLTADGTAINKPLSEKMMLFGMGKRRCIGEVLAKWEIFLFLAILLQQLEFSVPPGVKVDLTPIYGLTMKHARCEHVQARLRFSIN

Cytochrome P450 3A4 = Cytochrome P450 3A4 (Homo sapiens, UniProt P08684);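 also: CYP3A4 tested as one member of a cytochrome P450 panel screen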
Cytochrome P450 2C9 = Cytochrome P450 2C9 (Homo sapiens, UniProt P11712)
[1] = NIH-3T3 fibroblast cytotoxicity, dose response, cytotoxicity control, cell-based, fluorescence, Alamar Blue, secondary assay (AID 2327); assay type: functional;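 also: NIH-3T3 mouse fibroblasts cultured with fluconazole at 8 µg/mL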
[2] = C. albicans growth with fluconazole, confirmation, fluorescence, retest (AID 2467); assay type: functional, cell-based
Streptococcus = experiment: Group A Streptococcus viability loss, dose response, counter-screen for streptokinase expression inhibitor project, luminescence, BacTiterGlo (AID 1915); assay type: functional, organism-based;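 also: potency for reduction of bacterial viability or growth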
Streptokinase A = target: T2, Streptokinase A (Streptococcus pyogenes serotype M1, UniProt P10520); experiment: S. pyogenes streptokinase expression inhibitors, potency, dose response, plasminogen activation absorbance, OD405 (AID 1914); assay type: functional, Streptococcus pyogenes M1 GAS;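 also: secreted streptokinase activity via plasminogen activation per viability signal from cell pellet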
T2 sequence (P10520 whole entry): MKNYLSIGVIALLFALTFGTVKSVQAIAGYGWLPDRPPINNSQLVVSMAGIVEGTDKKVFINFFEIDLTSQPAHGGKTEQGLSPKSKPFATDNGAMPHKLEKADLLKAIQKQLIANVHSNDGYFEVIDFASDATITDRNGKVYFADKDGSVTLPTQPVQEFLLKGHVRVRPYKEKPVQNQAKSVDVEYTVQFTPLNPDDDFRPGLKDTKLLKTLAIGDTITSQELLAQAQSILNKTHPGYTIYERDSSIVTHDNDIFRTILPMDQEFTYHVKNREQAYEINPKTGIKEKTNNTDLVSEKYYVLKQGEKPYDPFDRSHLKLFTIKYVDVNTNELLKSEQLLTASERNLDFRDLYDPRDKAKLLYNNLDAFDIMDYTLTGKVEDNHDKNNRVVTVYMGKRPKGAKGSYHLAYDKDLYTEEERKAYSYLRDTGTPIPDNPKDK

[3] = system: Streptococcus sp. 'group A'; experiment: growth inhibition of control SK(-) GAS strain, dose response, counter-screen for streptokinase expression inhibitor project, luminescence, kanamycin, BacTiterGlo, confirmation (AID 1900); assay type: functional, organism-based
Cytochrome P450 2C19 = Cytochrome P450 2C19 (Homo sapiens, UniProt P33261); experiment: Cytochrome panel assay with activity outcomes. Panel member name: p450-cyp2c19 Compounds with AC50 equal or less than 10 uM are considered active; assay type: functional
INS1 = experiment: beta cell apoptosis inhibitors, cytokine rescue, dose response, luminescence, retest (AID 449756); assay type: functional, cell-based; settings: Rattus norvegicus;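 also: cell death triggered by IL-1 beta plus TNF-alpha plus IFN-gamma mixture; protective hits raise ATP signal compared with cytokine alone wells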

Cytochrome P450 2D6, sequence (P10635 whole entry): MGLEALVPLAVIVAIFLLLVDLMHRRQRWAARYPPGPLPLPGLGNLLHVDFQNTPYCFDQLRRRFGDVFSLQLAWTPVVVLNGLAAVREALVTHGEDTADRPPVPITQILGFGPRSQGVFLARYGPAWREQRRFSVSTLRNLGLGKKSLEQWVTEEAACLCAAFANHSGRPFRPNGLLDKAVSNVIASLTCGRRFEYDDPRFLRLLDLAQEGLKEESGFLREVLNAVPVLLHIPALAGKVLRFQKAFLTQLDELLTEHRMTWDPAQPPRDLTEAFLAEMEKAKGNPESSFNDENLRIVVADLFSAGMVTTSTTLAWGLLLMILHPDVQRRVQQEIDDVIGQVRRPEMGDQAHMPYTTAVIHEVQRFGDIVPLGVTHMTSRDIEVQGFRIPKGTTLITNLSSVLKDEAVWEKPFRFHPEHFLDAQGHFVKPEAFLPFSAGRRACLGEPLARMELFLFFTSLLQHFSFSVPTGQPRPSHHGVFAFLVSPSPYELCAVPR
Cytochrome P450 3A4, sequence (P08684 whole entry): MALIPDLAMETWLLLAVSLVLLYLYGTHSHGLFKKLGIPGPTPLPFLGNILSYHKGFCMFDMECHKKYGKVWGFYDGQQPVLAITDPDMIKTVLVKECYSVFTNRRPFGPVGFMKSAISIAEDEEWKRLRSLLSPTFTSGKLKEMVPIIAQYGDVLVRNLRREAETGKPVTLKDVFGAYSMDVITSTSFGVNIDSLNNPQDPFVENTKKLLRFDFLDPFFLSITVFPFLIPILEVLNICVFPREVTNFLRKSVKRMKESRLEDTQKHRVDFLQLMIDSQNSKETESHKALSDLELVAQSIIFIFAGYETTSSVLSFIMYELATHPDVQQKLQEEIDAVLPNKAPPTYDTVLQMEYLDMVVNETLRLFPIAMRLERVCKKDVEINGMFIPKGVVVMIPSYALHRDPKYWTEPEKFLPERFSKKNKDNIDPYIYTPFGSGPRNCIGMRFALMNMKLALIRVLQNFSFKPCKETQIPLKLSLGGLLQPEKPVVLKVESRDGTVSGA
Cytochrome P450 2C19, sequence (P33261 whole entry): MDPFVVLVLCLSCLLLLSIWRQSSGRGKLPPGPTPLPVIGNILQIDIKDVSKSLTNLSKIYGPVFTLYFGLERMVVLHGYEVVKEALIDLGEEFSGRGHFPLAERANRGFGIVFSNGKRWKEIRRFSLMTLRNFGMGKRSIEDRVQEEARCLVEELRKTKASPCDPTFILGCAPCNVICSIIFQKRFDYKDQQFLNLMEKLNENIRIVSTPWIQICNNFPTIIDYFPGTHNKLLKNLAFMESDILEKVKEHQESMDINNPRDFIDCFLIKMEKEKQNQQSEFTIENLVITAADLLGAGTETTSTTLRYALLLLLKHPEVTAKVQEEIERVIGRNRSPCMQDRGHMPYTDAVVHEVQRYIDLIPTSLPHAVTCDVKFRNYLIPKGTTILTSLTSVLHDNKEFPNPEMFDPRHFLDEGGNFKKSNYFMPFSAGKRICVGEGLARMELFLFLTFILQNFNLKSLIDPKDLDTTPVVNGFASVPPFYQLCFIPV
Cytochrome P450 2C9, sequence (P11712 whole entry): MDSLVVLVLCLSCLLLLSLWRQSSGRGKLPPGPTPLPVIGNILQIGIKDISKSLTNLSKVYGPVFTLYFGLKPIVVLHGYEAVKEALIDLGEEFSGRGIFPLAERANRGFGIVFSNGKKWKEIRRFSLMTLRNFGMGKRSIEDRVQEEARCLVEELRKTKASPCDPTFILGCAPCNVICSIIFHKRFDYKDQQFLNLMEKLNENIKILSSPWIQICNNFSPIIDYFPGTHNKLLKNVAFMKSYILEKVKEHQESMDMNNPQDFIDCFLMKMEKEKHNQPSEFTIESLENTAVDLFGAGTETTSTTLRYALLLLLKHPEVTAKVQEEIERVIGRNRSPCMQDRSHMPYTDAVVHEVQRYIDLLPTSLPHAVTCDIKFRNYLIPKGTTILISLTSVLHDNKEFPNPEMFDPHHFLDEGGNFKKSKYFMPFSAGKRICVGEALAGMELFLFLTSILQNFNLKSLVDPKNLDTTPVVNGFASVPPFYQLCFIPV

CN1CCN(c2ncc3nc(-c4ccccc4)c(=O)n(CCC#N)c3n2)CC1
AC50 (Cytochrome P450 2D6): 25.1 µM (inconclusive)
AC50 (Cytochrome P450 1A2): 20 µM (inconclusive)

CS(=O)(=O)N1CCC2(CCN(Cc3ccncc3)CC2)CC1
AC50 (Cytochrome P450 3A4): 12.6 µM (inconclusive)
AC50 (Cytochrome P450 2D6): 25.1 µM (inconclusive)
AC50 (Cytochrome P450 2C9): 31.6 µM (inconclusive)

Cc1cnc(CNc2ncncc2-c2ccccc2Cl)cn1
AC50 (Cytochrome P450 3A4): 0.251 µM (inconclusive)
AC50 (Cytochrome P450 2D6): 25.1 µM (inconclusive)

Cc1ccc(C(=O)Cn2cccn2)cc1
EC50 [1]: > 160 µM (inconclusive)
EC50 [2]: > 38 µM (not active)

Cc1ccc(-n2c(-c3ccccc3)cc(=O)nc2C)cc1
AC50 (Cytochrome P450 2C9): 7.08 µM (inconclusive)

COc1cnc(-c2ccccn2)nc1Oc1c(C)cccc1C
EC50 (Streptococcus): > 150 µM (not active)
EC50 (Streptokinase A): > 150 µM (not active)
EC50 [3]: 6.39 µM (active)

COc1ccc(NC(=O)COC(=O)Cn2c(C)nc3ccccc32)cc1OC
AC50 (Cytochrome P450 2C19; read-out: AC50): 3.55 µM (inconclusive)

COc1ccc(NC(=O)N2CCCC3(CCN(C(=O)c4ccc(OC)cc4)CC3)C2)cc1
AC50 (Cytochrome P450 2C9): 39.8 µM (inconclusive)

COC(=O)[C@@]1(Cc2ccc(OC)cc2)[C@H]2c3cc(C(=O)N4CCCC4)n(Cc4nc5ccccc5[nH]4)c3C[C@H]2CN1C(=O)c1ccccc1
AC50 (Cytochrome P450 2C19; read-out: AC50): 20 µM (inconclusive)

COc1ccc(NS(=O)(=O)c2cccc(NC(=O)CCC(=O)c3ccc(Cl)cc3)c2)cc1
EC50 (Streptococcus): 25.3 µM (active)
EC50 (Streptokinase A): > 150 µM (not active)
EC50 [3]: 11.2 µM (active)

CN1c2ccccc2C(O)=C(C(=O)Nc2ccccc2)S1(=O)=O
AC50 (Cytochrome P450 3A4): 39.8 µM (inconclusive)
AC50 (Cytochrome P450 2C19): inconclusive

Cn1c(CCN2CCCCC2)nc2cc([N+](=O)[O-])ccc21
AC50 (Cytochrome P450 2D6): 14.1 µM (inconclusive)
AC50 (Cytochrome P450 2C19): inconclusive

CCc1ccc(OCC(=O)NC(=S)Nc2ccc(F)cc2)c(Br)c1
AC50 (Cytochrome P450 2C9): 3.16 µM (inconclusive)
AC50 (Cytochrome P450 1A2): 3.16 µM (inconclusive)

CCCNC(=O)Cn1cnc2sc(C(=O)Nc3ccc4c(c3)OCO4)c(C)c2c1=O
AC50 (Cytochrome P450 3A4): 1.41 µM (inconclusive)
AC50 (Cytochrome P450 2D6): 5.01 µM (inconclusive)
AC50 (Cytochrome P450 2C19; read-out: AC50): 0.00562 µM (inconclusive)

N=c1c2ccccc2nc2n1CCCCCCCCCCC2
AC50 (INS1): 9.52 µM (active)

COCc1nnc(NC(=O)CCN2C(=O)c3ccccc3C2=O)s1
AC50 (Cytochrome P450 2D6): 17.8 µM (inconclusive)
AC50 (Cytochrome P450 2C9): 31.6 µM (inconclusive)

CCOC(=O)CSc1n[nH]c(-c2cccnc2)n1
AC50 (Cytochrome P450 3A4): 15.8 µM (inconclusive)
AC50 (Cytochrome P450 2C19; read-out: AC50): 11.2 µM (inconclusive)

Oc1c(Br)cc(Br)cc1Oc1ccc(Br)cc1Br
EC50 (Streptococcus): 2.73 µM (active)
EC50 [1]: > 150 µM (inactive)
EC50 (Streptokinase A): 0.753 µM (active)
EC50 [2]: > 38 µM (not active)
EC50 [3]: 1.33 µM (active)

O=c1ccc2[nH]cc(C3=CCNCC3)c2[nH]1
AC50 (Cytochrome P450 2C9): 7.94 µM (inconclusive)

C/C(=N\NC(=O)c1cccc(Br)c1)c1ccc(Br)cc1
AC50 (Cytochrome P450 3A4): 28.2 µM (inconclusive)
AC50 (Cytochrome P450 2C19; read-out: AC50): 0.224 µM (inconclusive)

C/C(=N\O)c1cc(Cl)cc(Cl)c1O
EC50 [1]: > 160 µM (inactive)
EC50 [2]: 4.41 µM (active)

O=C(CNC(=O)c1ccc2c(c1)OCO2)N/N=C/c1cc(Br)ccc1O
AC50 (INS1): 3.36 µM (active)
EC50 (Streptococcus): 25.2 µM (inconclusive)
EC50 (Streptokinase A): > 150 µM (not active)
EC50 [3]: 10.1 µM (active)

Cc1ccc(-c2nnc(Nc3ccccc3)c3ccccc23)cc1S(=O)(=O)NCC1CCCO1 (configuration not stated)
EC50 [1]: 25 µM (active)
EC50 [2]: 5.07 µM (active)

O=P([O-])([O-])C(Cl)(Cl)P(=O)(O)O.[Na+].[Na+] [CLODRONATE DISODIUM]
AC50 (Cytochrome P450 2C19): inconclusive

CN1CCC(=C2c3ccccc3Sc3ccccc32)CC1 [PIMETHIXENE]
AC50 (Cytochrome P450 2C19; read-out: AC50): 15.8 µM (inconclusive)

N#CC(C#N)=Cc1cc(O)c(O)c(O)c1 [TYRPHOSTIN 25]
AC50 (Cytochrome P450 2C9): 15.8 µM (inconclusive)
